According to US20250339569A1, “CARBONIC ANHYDRASE IX LIGANDS” (priority 2021, published 2025):
Where two headings read alike, the source gives them in different places. Starred links: 1 amine or outer side, 2 acyl side, 3 side chain; linkers in the order of their positions; H or OH if unused. Positions of bridges follow the written chain, without caps; N, C: chain ends. Non-standard residues stand in square brackets, D forms with d. Residues, ends and D or L forms follow the SMILES beside them. *: point of attachment. NH(CH2)3NH(O2Oc(DOTA)) = O=C(O)CN1CCN(CC(=O)O)CCN(CC(=O)NCCOCCOCC(=O)NCCCN*)CCN(CC(=O)O)CC1; X3 = O=C(O)CN1CCN(CC(=O)O)CCN(CC(=O)NCCCOCCOCCOCCCN*)CCN(CC(=O)O)CC1; mXylylene = c1cc(C[*:1])cc(C[*:2])c1; Tic = O=C(O)[C@@H]1Cc2ccccc2CN1; Pen = CC(C)(S)[C@H](N)C(=O)O; Suc = O=C(CCC(=O)[*:2])[*:1]; Isovaleryl = CC(C)CC(=O)*; Sar = CNCC(=O)O

Molecular target: T1, CAIX-expressing human HT-29 colorectal cancer cells (Homo sapiens, UniProt Q16790)
T1 construct: CAIX-expressing human HT-29 colorectal cancer cells; host or cells: HT-29 human colorectal cancer cells
Assay: FACS binding assay (IC50 determination, competition with tracer 3BP-2776 or 3BP-4149)
Details: 4° C., 1 hour, read-out: pIC50 category (activity) (converted)
How it was run: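 HT-29 cells in FACS buffer (PBS, 1% FCS) at 500.000 cells/ml were exposed to compounds competing with a labelled tracer, with biotinylated compounds detected by 1 μg/mL APC-streptavidin for 30 min on ice. APC/Cy5 median fluorescence was read by flow cytometry and IC50 derived by 4PL fit.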

[1] = FACS competition on HT-29 cells, Tracer ID 3BP-2776 (10 nM, biotin-labeled)

Row | SMILES | IC50 [1] [nM] | IC50 (FACS binding assay, HT-29 cells, competition with tracer 3BP-2776 (10 nM, biotin-labeled)) [nM]
1 | CC(C)C[C@@H]1NC(=O)[C@H](Cc2c[nH]c3ccccc23)NC(=O)[C@H](CC(=O)O)NC(=O)CN(C)C(=O)[C@H](CCC(=O)O)NC(=O)[C@@H](NC(=O)[C@H](Cc2ccc(O)cc2)NC(=O)[C@@H](NC(=O)CCC(=O)NCCCOCCOCCOCCCNC(=O)CN2CCN(CC(=O)O)CCN(CC(=O)O)CCN(CC(=O)O)CC2)C(C)C)CSCc2cccc(c2)CSC[C@@H](C(N)=O)NC(=O)[C@H](C)NC(=O)[C@H](Cc2c[nH]c3ccccc23)NC(=O)[C@H]([C@@H](C)O)NC1=O [3BP-3278] ({X3-Suc}-VYCE[Sar]DWLTWAC-NH2; linker 3-12 via mXylylene) | 10 to 79.4 | –
2 | CC(=O)N[C@H](C(=O)N[C@@H](Cc1ccc(O)cc1)C(=O)N[C@H]1CSCc2cccc(c2)CSC(C)(C)[C@@H](C(N)=O)NC(=O)[C@H](CO)NC(=O)[C@H](Cc2c[nH]c3ccccc23)NC(=O)[C@@H]2CCC(=O)NCCCC[C@H](NC(=O)[C@H]3CCCN3C(=O)[C@H](CCC(=O)O)NC1=O)C(=O)N[C@@H](Cc1c[nH]c3ccccc13)C(=O)N[C@@H](CC(C)C)C(=O)N2)C(C)C [3BP-3963] (Ac-VYCE[dP]KWLEWS[Pen]-NH2; linker 3-12 via mXylylene; lactam 6-9) | – | < 10
3 | CC(C)CC(=O)N[C@@H](CC(=O)O)C(=O)N[C@H]1CSCc2cccc(c2)CSC[C@@H](C(N)=O)NC(=O)[C@H](CCC(=O)NCCCNC(=O)COCCOCCNC(=O)CN2CCN(CC(=O)O)CCN(CC(=O)O)CCN(CC(=O)O)CC2)NC(=O)[C@H](Cc2c[nH]c3ccccc23)NC(=O)[C@H]([C@@H](C)O)NC(=O)[C@H](CC(C)C)NC(=O)[C@H](Cc2c[nH]c3ccccc23)NC(=O)[C@H](CC(=O)O)NC(=O)[C@H]2CCCN2C(=O)[C@H](CCC(=O)O)NC1=O [3BP-3871] (Isovaleryl-DCE[dP]DWLTWE(NH(CH2)3NH(O2Oc(DOTA)))C-NH2; linker 2-11 via mXylylene) | 10 to 79.4 | –
4 | CC(=O)N[C@H](C(=O)N[C@@H](Cc1ccccc1)C(=O)N[C@H]1CSCc2cccc(c2)CSC[C@@H](C(N)=O)NC(=O)[C@H](CCC(=O)NCCCNC(=O)COCCOCCNC(=O)CN2CCN(CC(=O)O)CCN(CC(=O)O)CCN(CC(=O)O)CC2)NC(=O)[C@H](Cc2c[nH]c3ccccc23)NC(=O)[C@H]([C@@H](C)O)NC(=O)[C@H](CC(C)C)NC(=O)[C@H](Cc2c[nH]c3ccccc23)NC(=O)[C@H](CC(=O)O)NC(=O)[C@H]2CCCN2C(=O)[C@H](CCC(=O)O)NC1=O)C(C)C [3BP-3733] (Ac-VFCE[dP]DWLTWE(NH(CH2)3NH(O2Oc(DOTA)))C-NH2; linker 3-12 via mXylylene) | < 10 | –

The next lines start with the values.

Row | IC50 [1] [nM] | IC50 (FACS binding assay, HT-29 cells, competition with tracer 3BP-2776 (10 nM, biotin-labeled)) [nM] | SMILES
5 | 100 to 794 | – | CC(=O)N[C@H](C(=O)N[C@@H](Cc1ccc(O)cc1)C(=O)N[C@H]1CSCc2cccc(c2)CSC[C@@H](C(N)=O)NC(=O)[C@H](CCC(N)=O)NC(=O)[C@H](Cc2c[nH]c3ccccc23)NC(=O)[C@H]([C@@H](C)O)NC(=O)[C@@H](CC(C)C)NC(=O)[C@H](Cc2c[nH]c3ccccc23)NC(=O)[C@H](CC(=O)O)NC(=O)CNC(=O)[C@H](CCC(=O)O)NC1=O)C(C)C [3BP-3048] (Ac-VYCEGDW[dL]TWQC-NH2; linker 3-12 via mXylylene)
6 | 10 to 79.4 | – | CC(=O)N[C@H](C(=O)N1Cc2ccccc2C[C@H]1C(=O)N[C@H]1CSCc2cccc(c2)CSC[C@@H](C(N)=O)NC(=O)[C@H](CO)NC(=O)[C@H](Cc2c[nH]c3ccccc23)NC(=O)[C@H]([C@@H](C)O)NC(=O)[C@H](CC(C)C)NC(=O)[C@H](Cc2c[nH]c3ccccc23)NC(=O)[C@H](CC(=O)O)NC(=O)[C@H]2CCCN2C(=O)[C@H](CCC(=O)O)NC1=O)C(C)C [3BP-3572] (Ac-V[Tic]CE[dP]DWLTWSC-NH2; linker 3-12 via mXylylene)
